Reference: US7229987B2, “Multicyclic compounds for use as melanin concentrating hormone antagonists in the treatment of obesity and diabetes” (Eli Lilly and Company, priority 2002, dated 2007)

Key:
[1] = biological target: T1, human MCHR1 (Homo sapiens, UniProt Q99705); experiment: 125I-MCH competitive binding assay (SPA) with clone 43 membranes; conditions: competition with 125I-MCH, clone 43 membranes (AV12 cells expressing human MCHR1); Ki from IC50 by Cheng-Prusoff; tested in duplicate
T1 construct: The full-length cDNA for human MCHR1 was cloned from a human adult brain cDNA library; expressed in transfected cells; host or cells: AV12 cells previously transfected with Gα15
T1 sequence (Q99705 whole entry): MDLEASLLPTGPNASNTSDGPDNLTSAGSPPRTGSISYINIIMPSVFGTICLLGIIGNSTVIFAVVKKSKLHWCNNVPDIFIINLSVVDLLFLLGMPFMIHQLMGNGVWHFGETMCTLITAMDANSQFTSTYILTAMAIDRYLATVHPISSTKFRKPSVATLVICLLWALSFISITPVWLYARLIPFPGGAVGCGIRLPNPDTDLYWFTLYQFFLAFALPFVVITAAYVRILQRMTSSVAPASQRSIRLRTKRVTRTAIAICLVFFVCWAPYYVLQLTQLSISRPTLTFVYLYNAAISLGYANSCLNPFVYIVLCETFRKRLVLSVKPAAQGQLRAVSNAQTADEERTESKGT
Excerpt: (§1) The full-length cDNA for human MCHR1 was cloned from a human adult brain cDNA library (Edge Biosystems, Cat. 38356) by standard polymerase chain reaction (PCR) methodology employing the following primers: sense, 5′-GCCACCATGGACCT GGAAGCCTCGCTGC-3′; anti-sense, 5′-[…]-3′.
(§2) In order to generate cell lines stably expressing MCHR1, the insert was then subcloned into the Xba I and Not I sites of pcDNA(+)-3.1-neomycin (Invitrogen). After purification by Qiagen Maxi-prep kit (QIAGEN, Inc.), the plasmid was transfected by Fugene 6 (Roche Applied Science) into AV12 cells that had been previously transfected with the promiscuous G protein Gα15. The transfected cells were selected by
(§3) Both the ^125I-MCH binding and functional GTPγ^35S binding assays employed membranes isolated from a clone designated as clone 43. Typically, cells from 20 confluent T225 flasks were processed by washing the monolayers in cold phosphate-buffered saline (PBS), scraping the cells into same and re-suspending the cell pellet in 35 ml of 250 mM Sucrose, 50 mM HEPES, pH 7.5, 1 mM MgCl2, 24 μg/ml DNase I, and protease inhibitors (1 Complete® tablet, per 50 ml of buffer prepared, Roche Diagnostics). After incubation on ice for 5 min, cells were disrupted with 20–25 strokes of a Teflon/Glass homogenizer attached to an overhead motorized stirrer, and the homogenate was centrifuged at 40,000 rpm in Beckman Type 70.1 Ti rotor. The pellets were re-suspended in 250 mM Sucrose, 50 mM HEPES, pH 7.5, 1.5 mM CaCl2, 1 mM MgSO4 and protease inhibitors by Teflon/Glass homogenization to achieve a protein concentration of ˜3–5 mg/ml (Pierce BCA assay with Bovine serum albumin as standard).
Aliquots were stored at −70° C. Binding of compounds to MCHR1 was assessed in a competitive binding assay employing ^125I-MCH, compound and clone 43 membranes. Briefly, assays are carried out in 96-well Costar 3632 white opaque plates in a total volume of 200 μl containing 25 mM HEPES, pH 7.5, 10 mM CaCl2, 2 mg/ml bovine serum albumin, 0.5% dimethyl sulfoxide (DMSO), 4 μg of clone 43 membranes, […] ^125I-MCH (NEN), 1.0 mg of wheat germ agglutinin scintillation proximity assay beads (WGA-SPA beads, Amersham) and a graded dose of test compound. Non-specific binding is assessed in the presence of 1 μM unlabeled MCH. Bound ^125I-MCH is determined by placing sealed plates in a Microbeta Trilux (Wallac) and counting after a 5 hr delay.
IC50 values (defined as the concentration of test compound required to reduce specific binding of ^125I-MCH by 50%) are determined by fitting the concentration-response data to a 4-parameter model (max response, min response, Hill coefficient, IC50) using Excel. Ki values are calculated from IC50 values using the Cheng-Prusoff approximation as described by Cheng et al. (Relationship between the inhibition constant (Ki) and the concentration of inhibitor which causes 50% inhibition (IC50) of an enzymatic reaction, Biochem. Pharmacol., 22: 3099–3108 (1973)). The Kd for ^125I-MCH is determined independently from a saturation binding isotherm.

[2] = biological target: T1, human MCHR1; experiment: Inhibition of MCH-stimulated GTPγ35S binding to clone 43 membranes (functional antagonism); type: biochemical; conditions: inhibition of GTPγ35S binding stimulated by 40 nM MCH (about EC90), Kb from IC50 by modified Cheng-Prusoff (Leff and Dougal), tested in duplicate
Excerpt: as §1, §2, §3
Functional antagonism of MCH activity is assessed by measuring the ability of test compound to inhibit MCH-stimulated binding of GTPγ^35S to clone 43 membranes. Briefly, assays are carried out in Costar 3632 white opaque plates in a total volume of 200 μl containing 25 mM Hepes, pH 7.5, 5 mM MgCl2, 10 μg/ml saponin, 100 mM NaCl, 3 μM GDP, 0.3 nM GTPγ^35S, 40 nM MCH (approximately equal to EC90), 20 μg of clone 43 membranes, 1.0 mg of wheat germ agglutinin scintillation proximity assay beads (WGA-SPA beads, Amersham) and a graded dose of test compound. The plates are sealed and left for 16–18 hrs at 4° C. After a 1 hr delay to allow plates to equilibrate to ambient temperature, bound GTPγ^35S is determined by counting in a Microbeta Trilux (Wallac).
IC50 values (defined as the concentration of test compound required to reduce MCH-stimulated GTPγ^35S binding by 50%) are determined by fitting the concentration-response data to a 4-parameter model (max response, min response, Hill coefficient, IC50) using Excel. Kb values are calculated from IC50 values using a modification of the Cheng-Prusoff approximation as described by Leff and Dougal (Further concerns over Cheng-Prusoff analysis, Trends Pharmacol. Sci. 14: 110–112 (1993)) after verifying competitive antagonism by Schild analysis. The EC50 for MCH alone is determined independently. The MCHR1 binding and functional activities of 24 compounds in the oxadiazole series (tested in duplicate) are shown in Table 1

Structure (SMILES) | Ki [1] | Kb [2] | melting point
CN(C)C/C=C/c1ccc(-c2nnc(CSCCOc3ccccc3)o2)cc1 | 3.7 nM | 11.6 nM | 
CN(C)CCCOc1ccc(-c2cnc(CSCCOc3ccccc3)o2)cc1 | 4.3 nM | 15 nM | 
c1ccc(OCCSCc2ncc(-c3ccc(OCCN4CCCC4)cc3)o2)cc1 | 5.8 nM | 12 nM | 
O=C(NCCN1CCCC1)Nc1ccc(-c2nnc(CSCCOc3ccccc3)o2)cc1 | 9 nM | 20 nM | 
c1ccc(OCCSCc2ncc(-c3ccc(OCCCN4CCCC4)cc3)o2)cc1 | 10.2 nM | 16.5 nM | 
CN(C)CCNC(=O)Nc1ccc(-c2nnc(CSCCOc3ccccc3)o2)cc1 | 10.4 nM | 16.2 nM | 
c1ccc(OCCSCc2ncc(-c3ccc(OCCN4CCCCC4)cc3)o2)cc1 | 11.6 nM | 7.3 nM | 
CN1CCC[C@@H]1CCOc1ccc(-c2nnc(CSCCOc3ccccc3)o2)cc1 | 12.9 nM | 39.6 nM | 
CN(C)CCOc1ccc(-c2cnc(CSCCOc3ccccc3)o2)cc1 | 13.3 nM | 9.4 nM | 
CN(C)CCCOc1ccc(-c2nnc(CSCc3cc4ccccc4o3)o2)cc1 | 16.1 nM | 35.4 nM | 
c1ccc(OCCSCc2ncc(-c3ccc(OCCCN4CCCCC4)cc3)o2)cc1 | 17.9 nM | 15.9 nM | 
CN(C)CCCOc1ccc(-c2nnc(CSCc3ccc4ccccc4c3)o2)cc1 | 22.4 nM | 50.6 nM | 
CN(C)CCCOc1ccc(-c2coc(CSCCOc3ccccc3)n2)cc1 | 35 nM | 41.5 nM | 
CN(C)CCCOc1ccc(-c2nnc(CSCc3cc4ccccc4s3)o2)cc1 | 48.4 nM | 139 nM | 
CN(C)CCCOc1ccc(-c2nnc(CSCCOC(C)(C)C)o2)cc1 [Example 280, (3-{4-[5-(2-tert-butoxy-ethylsulfanylmethyl)-[1,3,4]oxadiazol-2-yl]-phenoxy}-propyl)-dimethyl-amine] |  |  | 84.5 to 85.5 °C
CN(C)CCCOc1c(Cl)cc(-c2nnc(CSCCOc3ccccc3)o2)cc1Cl.O=C(O)/C=C/C(=O)O [Example 283, (3-{2,6-dichloro-4-[5-(2-phenoxy-ethylsulfanylmethyl)-[1,3,4]oxadiazol-2-yl]-phenoxy}-propyl)-dimethyl-amine; fumaric acid salt] |  |  | 95 to 99 °C
COc1cc(-c2nnc(CSCCOc3ccccc3)o2)ccc1OCCCN(C)C.O=C(O)/C=C\C(=O)O [Example 284, (3-{2-methoxy-4-[5-(2-phenoxy-ethylsulfanylmethyl)-[1,3,4]oxadiazol-2-yl]-phenoxy}-propyl)-dimethyl-amine; maleic acid salt] |  |  | 114 to 116 °C

Structure (SMILES) | Ki [1] | Kb [2] | melting point
COc1cc(-c2nnc(CSCCOc3ccccc3)o2)cc(OC)c1OCCCN(C)C.O=C(O)/C=C\C(=O)O [Example 285, (3-{2,6-dimethoxy-4-[5-(2-phenoxy-ethylsulfanylmethyl)-[1,3,4]oxadiazol-2-yl]-phenoxy}-propyl)-dimethyl-amine; maleic acid salt] |  |  | 103 to 104 °C
CN(C)CCCOc1ccc(-c2nnc(CSCCOc3ccccc3)o2)cc1F.O=C(O)/C=C\C(=O)O [Example 287, (3-{2-fluoro-4-[5-(2-phenoxy-ethylsulfanylmethyl)-[1,3,4]oxadiazol-2-yl]-phenoxy}-propyl)-dimethyl-amine; maleic acid salt] |  |  | 70 to 72 °C
CN(C)CCCOc1ccc(-c2nnc(CSCCOc3ccccc3)o2)cn1 [Example 288, dimethyl-(3-{5-[5-(2-phenoxy-ethylsulfanylmethyl)-[1,3,4]oxadiazol-2-yl]-pyridin-2-yloxy}-propyl)-amine] |  |  | 69 to 70 °C
CN(C)CCCOc1ccc(-c2nnc(CSCCOc3ccccc3)o2)nc1 [Example 289, dimethyl-(3-{6-[5-(2-phenoxy-ethylsulfanylmethyl)-[1,3,4]oxadiazol-2-yl]-pyridin-3-yloxy}-propyl)-amine] |  |  | 47 to 49 °C
CN1CCCC(COc2ccc(-c3nnc(CSCCOc4ccccc4)o3)cc2)C1.O=C(O)/C=C\C(=O)O (stereo not shown) [Example 290, 1-methyl-3-{4-[5-(2-phenoxy-ethylsulfanylmethyl)-[1,3,4]oxadiazol-2-yl]-phenoxymethyl}-piperidine; maleic acid salt] |  |  | 115 to 116 °C
CN1CCC(Oc2ccc(-c3nnc(CSCCOc4ccccc4)o3)cc2)CC1.O=C(O)/C=C\C(=O)O [Example 291, 1-methyl-4-{4-[5-(2-phenoxy-ethylsulfanylmethyl)-[1,3,4]oxadiazol-2-yl]-phenoxy}-piperidine; maleic acid salt] |  |  | 149 to 150 °C
CN1CCN(c2ccc(-c3nnc(CSCCOc4ccccc4)o3)cn2)CC1.O=C(O)/C=C\C(=O)O [Example 293, 1-methyl-4-{5-[5-(2-phenoxy-ethylsulfanylmethyl)-[1,3,4]oxadiazol-2-yl]-pyridin-2-yl}-piperazine; maleic acid salt] |  |  | 146 to 147 °C
C(=C\c1ccc(-c2nnc(CSCCOc3ccccc3)o2)cc1)/CN1CCCC1 [drawing 38] | 1.9 nM | 6 nM | 
CN(C)CCOc1ccc(-c2nnc(CSCCOc3ccccc3)o2)cc1 [drawing 41] | 5.3 nM | 13.6 nM | 
O=C(NCCN1CCCCC1)Nc1ccc(-c2nnc(CSCCOc3ccccc3)o2)cc1 [drawing 42] | 5.6 nM | 14.7 nM | 
c1ccc(OCCSCc2nnc(-c3ccc(OCCN4CCCCC4)cc3)o2)cc1 [drawing 45] | 9.2 nM | 19.8 nM | 
c1ccc(OCCSCc2nnc(-c3ccc(OCCCN4CCCC4)cc3)o2)cc1 [drawing 51] | 14.3 nM | 18.1 nM | 
CN(C)CCCOc1ccc(-c2nnc(CSCCOc3ccccc3)o2)cc1 [drawing 52] | 16 nM | 11.9 nM | 
c1ccc(OCCSCc2nnc(-c3ccc(OCCCCN4CCCCCC4)cc3)o2)cc1 [drawing 57] | 37.9 nM | 31.3 nM | 
CC(C)N(CCCCOc1ccc(-c2nnc(CSCCOc3ccccc3)o2)cc1)C(C)C [drawing 59] | 63.3 nM | 52.1 nM | 
CC(C)N(CCCOc1ccc(-c2nnc(CSCCOc3ccccc3)o2)cc1)C(C)C [drawing 60] | 140 nM | 145 nM | 
c1ccc(OCCSCc2nnc(-c3ccc(OCc4cccnc4)cc3)o2)cc1 [drawing 61] | 2900 nM | 6890 nM | 
